Test results as given in patent publication US20140121193A1, “METHODS FOR TREATING FIBROMYALGIA” (priority 2012, published 2014).
Counter-ions that a name gives are not always drawn.

Columns and labels:
Assay type in all cases: in vivo, human
patients with FMS [1] = assay: Word naming speed (Stroop Color and Word Test) before and after methylphenidate; details: 10 to 30 mg per day, median 30 days
Text: Abnormalities in naming speed are an unappreciated feature of cognitive dysfunction in fibromyalgia (FMS). Approximately 50% of FMS patients with memory problems name words at a rate that is 203 milliseconds slower than normal. The connection between naming speed and memory loss in FMS is unclear. Stimulant medications like methylphenidate have been known to influence naming speed and could provide clues to the relationship between cognitive functioning and naming speed. The purpose of this experiment was to determine if faster naming speed is connected to positive change in cognitive functioning in patients with fibromyalgia.
(§1) A word naming speed measure (Stroop Color and Word Test) and a measure of cognitive functioning (Mental Clutter Scale, MCS) were administered to 15 patients with FMS, before receiving methylphenidate and post-treatment with methylphenidate. The FMS patients were female, met American College of Rheumatology criteria for FMS, and had memory problems. Methylphenidate dosage was clinically determined and ranged from 10 to 30 mg per day. The median time of methylphenidate usage at re-testing was 30 days. Naming speed was determined by the number of words named in a 45 second time period.
(§2) The mean age of the FMS sample was 46.3±11.6 years with 14.1±2.1 years of education. […] Pre-methylphenidate, the patients read 77.4 words in 45 seconds (581.4 msec/word). Post-methylphenidate, the patients read 93 words in 45 seconds (483.9 msec/word). This represents a 97.5 millisecond benefit from methylphenidate. The normative sample reads 108 words in 45 seconds or 417 msec/word.

patients with FMS [2] = assay: Mental Clutter Scale (MCS), Cognition and Mental Clarity subscales, before and after methylphenidate; details: 10 to 30 mg per day, median 30 days
Experimental: Three studies involving a sample of over 800 subjects were carried out to determine the structure and stability of a new scale, the Mental Clutter Scale (MCS) (Leavitt & Katz, 2011, “Development of the Mental Clutter Scale,” Psychol. Rep. 109(2): 445-52). An initial pool of 13 items was formulated from self-statements of patients presenting with a history of memory complaints and a review of the literature. Seven items relating to problems with cognitive skills were rated on a 10-point Likert scale from 1=no problem, to 10=severe problem. Six items relating to the frequency of diminished mental clarity were rated on a 10-point Likert scale from 1=not at all, to 10=all the time.
as §1, §2

patients with FMS [3] = assay: Interference from pain on energy, mood and concentration, 10 point visual analogue scale
Experimental: (§3) Fibromyalgia patients were treated with methylphenidate and the effects on concentration, energy, and feelings of well-being were measured. […] Pain intensity was also recorded on a 10 point visual analogue scale, with the endpoint of 1 indicating no pain, and the endpoint of 10 indicating severe pain. The four measures were administered to 48 patients with FMS, before receiving methylphenidate and post methylphenidate treatment. The FMS patients were female and met the new ACR criteria for FMS. Methylphenidate dosage was clinically determined and ranged from 10 to 60 mg per day. The median methylphenidate usage at re-testing was 30 days.
(§4) The mean age of the FMS sample was 48.3±12.3 years. […] The largest change occurred with concentration. However, a significant change in pain intensity with methylphenidate treatment was not observed.

patients with FMS [4] = assay: Pain intensity, 10 point visual analogue scale
Experimental: as §3, §4

## COC(=O)C(c1ccccc1)C1CCCCN1 (racemic) [methylphenidate, d,l (racemic)-threo-methyl α-phenyl-2-piperidineacetate hydrochloride]
Patients with FMS [1]; pre-methylphenidate 77.4, normative sample 108
  words read in 45 seconds, post-methylphenidate: 93 words in 45 seconds
Patients with FMS [1]; pre-methylphenidate 581.4, normative sample 417
  naming time per word, post-methylphenidate: 483.9 msec/word
Patients with FMS [1]; pre minus post
  benefit from methylphenidate in naming time per word: 97.5 millisecond
Patients with FMS [2]; 15 FMS patients, pre-methylphenidate 48.1 ± 16.5, lower scores represent improved performance, p < 0.01
  Post-methylphenidate score, Mental Clarity subscale of the Mental Clutter Scale: 29.2 ± 13.6
Patients with FMS [2]; 15 FMS patients, pre-methylphenidate 52.8 ± 15.6, lower scores represent improved performance, p < 0.01
  Post-methylphenidate score, Cognition subscale of the Mental Clutter Scale: 35.1 ± 11.3
Patients with FMS [2]; pre vs post
  improvement with methylphenidate on Cognition (MCS): 17 point
  improvement with methylphenidate on Mental Clarity (MCS): 19 point
Patients with FMS [3]; 48 female FMS patients, 10 to 60 mg per day, median 30 days, VAS 1-10, pre-methylphenidate 6.0 ± 2.6, lower scores = improved, p < 0.05
  Post-methylphenidate score, pain interference on Mood: 5.3 ± 2.5
Patients with FMS [3]; 48 female FMS patients, 10 to 60 mg per day, median 30 days, VAS 1-10, pre-methylphenidate 6.5 ± 2.3, lower scores = improved
  Post-methylphenidate score, pain interference on Concentration: 5.4 ± 2.4
Patients with FMS [3]; 48 female FMS patients, 10 to 60 mg per day, median 30 days, VAS 1-10, pre-methylphenidate 6.6 ± 2.4, lower scores = improved
  Post-methylphenidate score, pain interference on Energy: 5.9 ± 2.2
Patients with FMS [3]; pre vs post methylphenidate, p<0.001, largest change
  change in pain interference on concentration, repeated measures ANOVA: significant reduction
Patients with FMS [3]; pre vs post methylphenidate, p<0.01
  change in pain interference on energy, repeated measures ANOVA: significant reduction
Patients with FMS [3]; pre vs post methylphenidate, p<0.05
  change in pain interference on mood, repeated measures ANOVA: significant reduction
Patients with FMS [4]; 48 female FMS patients, 10 to 60 mg per day, median 30 days, VAS 1-10, pre-methylphenidate 6.7 ± 1.9, lower scores = improved
  Post-methylphenidate score, Pain intensity: 6.4 ± 2.4
Patients with FMS [4]; pre vs post methylphenidate
  significant change in pain intensity with methylphenidate treatment: not observed
